In patent US6514692B2, “Method for treatment of immunodeficiency virus infection” (priority 1996, dated 2003):
“And” between values parts separate entries of the source, which are not always exact repeats. Identical values can stand only once. Like-named read-outs stand apart in the source and are kept apart here.

Tests used:
[1] = tested on: ME180 cells; assay: toxicity (XTT) in transmission inhibition assay; details: for TOXICITY VALUES (XTT), single samples: samples 1-3; for TC50 (concentration at which 50% of cells are eliminated): interpolation from % CC
Text: (§1) ME180 cells, a cervical epithelial cell line, were obtained from the American Type Culture Collection. These cells were thawed from liquid nitrogen and grown in RPMI 1640 medium supplemented with 10t fetal bovine serum, glutamine and antibiotics. The cells were adherent and were trypsinized (0.5% trypsin in HBSS) to remove them from the flask for passaging and use in assays. For use in the microtiter transmission inhibition assay, ME180 cells were trypsinized, washed and seeded in 96-well flat bottom microtiter plates (COSTAR) at a density of 5×10^3 cells per well. The cells were incubated at 37° C. for 24 hours prior to the tart of the assay. H9 cells chronically infected with he SK1 isolate of HIV-1 were treated with 200 μg/ml mitomycin C for 60 minutes at 37° C. After treatment the cells were washed three times with tissue culture medium. The chronically infected lymphocytes were added to each well at a density of 2×10^4 cells per well. The concentration of mitomycin C used in the treatment of the lymphocytes was chosen to allow lymphocyte survival for the period of time required to transmit virus to the uninfected ME180 cells, but to die prior to the time of assay so as not to contribute to the p24 signal used as the endpoint (see below). In the transmission assay the lytic peptides D4E1 and D2A21, with and without 150 μg/ml pig mucin, were added prior to the addition of chronically infected cells or were mixed with the chronically infected cells prior to their addition to the monolayer of ME180 cells. Mucin was included because it is an abundant constituent of the normal vaginal secretions of a human being, thus any chemotherapeutic agent targeting HIV should be active in its presence if it is to have clinical value. […] The lymphocytes and peptide were co-cultured with the ME180 cells for 6 hours and then removed by washing the ME180 monolayer four times with PBS. The plate was then incubated at 37° C. for six days. Medium was removed and changed every 48 hours during the incubation stage. No further peptide was added after the initial dose. At six days post-co-cultivation, the supernatant was removed from the wells and evaluated for the quantity of p24 antigen by ELISA. The ELISA was performed according to the manufacturer's recommendations. The amount of virus production in wells treated with various concentrations of the peptides was evaluated with appropriate cell and virus controls. Data are reported as a percent of virus control at each drug concentration. Linear regression analysis was used to calculate the […] and IC95 concentrations of the transmission inhibitor. […] TI represents the toxicity index, which is the ratio of the TC50/IC50, and is an indication of the relative concentrations window that exists between efficacy and toxicity.

[2] = tested on: SK1 isolate of HIV-1; details: for p24 VALUES, single samples: samples 1-3; for IC50 (inhibition of cell-cell transmission): linear regression
Text: as §1

[3] = 0.32 μg/ml, with 150 μg/ml pig mucin
[4] = 1 μg/ml, with 150 μg/ml pig mucin
[5] = 3.2 μg/ml, with 150 μg/ml pig mucin
[6] = 10 μg/ml, with 150 μg/ml pig mucin
[7] = 32 μg/ml, with 150 μg/ml pig mucin
[8] = 100 μg/ml, with 150 μg/ml pig mucin

dextran sulfate
% CC (XTT, percent of cell control) ([1]; 0.32 μg/ml, no mucin): 95.4%
TOXICITY VALUES (XTT), MEAN ([1]; 0.32 μg/ml, no mucin): 0.485 O.D. @ 450/650 nm
TOXICITY VALUES (XTT), single samples ([1]; 0.32 μg/ml, no mucin): 0.477 O.D. @ 450/650 nm and 0.473 O.D. @ 450/650 nm and 0.504 O.D. @ 450/650 nm
% CC (XTT, percent of cell control) [1, 3]: 95.4%
TOXICITY VALUES (XTT), MEAN [1, 3]: 0.485 O.D. @ 450/650 nm
TOXICITY VALUES (XTT), single samples [1, 3]: 0.477 O.D. @ 450/650 nm and 0.473 O.D. @ 450/650 nm and 0.504 O.D. @ 450/650 nm
% CC (XTT, percent of cell control) ([1]; 1 μg/ml, no mucin): 98.4%
TOXICITY VALUES (XTT), MEAN ([1]; 1 μg/ml, no mucin): 0.500 O.D. @ 450/650 nm
TOXICITY VALUES (XTT), single samples ([1]; 1 μg/ml, no mucin): 0.479 O.D. @ 450/650 nm and 0.519 O.D. @ 450/650 nm and 0.501 O.D. @ 450/650 nm
% CC (XTT, percent of cell control) [1, 4]: 98.4%
TOXICITY VALUES (XTT), MEAN [1, 4]: 0.500 O.D. @ 450/650 nm
TOXICITY VALUES (XTT), single samples [1, 4]: 0.479 O.D. @ 450/650 nm and 0.519 O.D. @ 450/650 nm and 0.501 O.D. @ 450/650 nm
% CC (XTT, percent of cell control) ([1]; 3.2 μg/ml, no mucin): 91.5%
TOXICITY VALUES (XTT), MEAN ([1]; 3.2 μg/ml, no mucin): 0.465 O.D. @ 450/650 nm
TOXICITY VALUES (XTT), single samples ([1]; 3.2 μg/ml, no mucin): 0.483 O.D. @ 450/650 nm and 0.456 O.D. @ 450/650 nm and 0.457 O.D. @ 450/650 nm
% CC (XTT, percent of cell control) [1, 5]: 91.6%
TOXICITY VALUES (XTT), MEAN [1, 5]: 0.465 O.D. @ 450/650 nm
TOXICITY VALUES (XTT), single samples [1, 5]: 0.483 O.D. @ 450/650 nm and 0.456 O.D. @ 450/650 nm and 0.457 O.D. @ 450/650 nm
% CC (XTT, percent of cell control) ([1]; 10 μg/ml, no mucin): 95.7%
TOXICITY VALUES (XTT), MEAN ([1]; 10 μg/ml, no mucin): 0.486 O.D. @ 450/650 nm
TOXICITY VALUES (XTT), single samples ([1]; 10 μg/ml, no mucin): 0.463 O.D. @ 450/650 nm and 0.499 O.D. @ 450/650 nm and 0.497 O.D. @ 450/650 nm
% CC (XTT, percent of cell control) [1, 6]: 95.7%
TOXICITY VALUES (XTT), MEAN [1, 6]: 0.486 O.D. @ 450/650 nm
TOXICITY VALUES (XTT), single samples [1, 6]: 0.463 O.D. @ 450/650 nm and 0.499 O.D. @ 450/650 nm and 0.497 O.D. @ 450/650 nm
% CC (XTT, percent of cell control) ([1]; 32 μg/ml, no mucin): 92.5%
TOXICITY VALUES (XTT), MEAN ([1]; 32 μg/ml, no mucin): 0.470 O.D. @ 450/650 nm
TOXICITY VALUES (XTT), single samples ([1]; 32 μg/ml, no mucin): 0.444 O.D. @ 450/650 nm and 0.466 O.D. @ 450/650 nm and 0.499 O.D. @ 450/650 nm
% CC (XTT, percent of cell control) [1, 7]: 92.5%
TOXICITY VALUES (XTT), MEAN [1, 7]: 0.470 O.D. @ 450/650 nm
TOXICITY VALUES (XTT), single samples [1, 7]: 0.444 O.D. @ 450/650 nm and 0.466 O.D. @ 450/650 nm and 0.499 O.D. @ 450/650 nm
% CC (XTT, percent of cell control) ([1]; 100 μg/ml, no mucin): 98.7%
TOXICITY VALUES (XTT), MEAN ([1]; 100 μg/ml, no mucin): 0.491 O.D. @ 450/650 nm
TOXICITY VALUES (XTT), single samples ([1]; 100 μg/ml, no mucin): 0.479 O.D. @ 450/650 nm and 0.500 O.D. @ 450/650 nm and 0.495 O.D. @ 450/650 nm
% CC (XTT, percent of cell control) [1, 8]: 98.7%
TOXICITY VALUES (XTT), MEAN [1, 8]: 0.491 O.D. @ 450/650 nm
TOXICITY VALUES (XTT), single samples [1, 8]: 0.479 O.D. @ 450/650 nm and 0.500 O.D. @ 450/650 nm and 0.495 O.D. @ 450/650 nm
TC50 (concentration at which 50% of cells are eliminated) ([1]; no mucin): TC50 = 1 μg/ml
TC50 (concentration at which 50% of cells are eliminated) ([1]; with 150 μg/ml pig mucin): TC50 = 1 μg/ml
% VC (p24, percent of virus control) ([2]; 0.32 μg/ml, no mucin): 5.9%
p24 VALUES, MEAN ([2]; 0.32 μg/ml, no mucin): 3.2 µg/mL
% VC (p24, percent of virus control) [2, 3]: 7.7%
p24 VALUES, MEAN [2, 3]: 4.5 µg/mL
p24 VALUES, single samples [2, 3]: 5.0 µg/mL and 3.2 µg/mL and 6.1 µg/mL
% VC (p24, percent of virus control) ([2]; 1 μg/ml, no mucin): 7.6%
p24 VALUES, MEAN ([2]; 1 μg/ml, no mucin): 4.1 µg/mL
% VC (p24, percent of virus control) [2, 4]: 7.8%
p24 VALUES, MEAN [2, 4]: 4.9 µg/mL
% VC (p24, percent of virus control) ([2]; 3.2 μg/ml, no mucin): 0.0%
p24 VALUES, MEAN ([2]; 3.2 μg/ml, no mucin): 0.0 µg/mL
p24 VALUES, single samples ([2]; 3.2 μg/ml, no mucin): 0.0 µg/mL
% VC (p24, percent of virus control) [2, 5]: 11.4%
p24 VALUES, MEAN [2, 5]: 7.1 µg/mL
% VC (p24, percent of virus control) ([2]; 10 μg/ml, no mucin): 0.2%
p24 VALUES, MEAN ([2]; 10 μg/ml, no mucin): 0.0 µg/mL
% VC (p24, percent of virus control) [2, 6]: 11.6%
p24 VALUES, MEAN [2, 6]: 7.2 µg/mL
% VC (p24, percent of virus control) ([2]; 32 μg/ml, no mucin): 0.0%
p24 VALUES, MEAN ([2]; 32 μg/ml, no mucin): 0.0 µg/mL
p24 VALUES, single samples ([2]; 32 μg/ml, no mucin): 0.0 µg/mL
% VC (p24, percent of virus control) [2, 7]: 14.6%
p24 VALUES, MEAN [2, 7]: 9.0 µg/mL
% VC (p24, percent of virus control) ([2]; 100 μg/ml, no mucin): 0.0%
p24 VALUES, MEAN ([2]; 100 μg/ml, no mucin): 0.0 µg/mL
p24 VALUES, single samples ([2]; 100 μg/ml, no mucin): 0.0 µg/mL
% VC (p24, percent of virus control) [2, 8]: 8.0%
p24 VALUES, MEAN [2, 8]: 4.9 µg/mL
IC50 (inhibition of cell-cell transmission) ([2]; no mucin): IC50 = 0.002 μg/ml
IC50 (inhibition of cell-cell transmission) ([2]; with 150 μg/ml pig mucin): IC50 = 0.002 μg/ml
